From publication PMC10303920, “Competition between skin antimicrobial peptides and commensal bacteria in type 2 inflammation enables survival of S. aureus” (Cell reports, 2023)

Columns and labels:
ShA9-ΔLanti = test: Transmission electron microscopy of ShA9-ΔLanti; type: cell-based, Staphylococcus hominis; settings: 30°C, 30 min, Figure 5C
Description: To observe the effect of synergistic antimicrobial action between host AMP and lantibiotic on ShA9, ShA9-DLanti mutant were incubated in 90% RPMI media/10% TSB containing LL-37 ([…]), ammonium sulfate precipitation fraction of conditioned media from ShA9-WT (25% calculated from the original volume of media), or combination at 30°C for 30 min. Bacterial cells were washed with PBS twice and immediately fixed by re-suspending in modified Karnovsky’s fixative for 4 h, followed by 1% osmium tetroxide in 0.1 M cacodylate buffer for 1 h on ice. The cells were stained with 2% uranyl acetate for 1 h on ice, dehydrated in a graded series of ethanol (50–100%), washed with acetone, and then embedded with Durcupan. Sections (60 nm) were post-stained with 2% uranyl acetate for 5 min and Sato’s lead stain for 1 min. Grids were viewed using a JEOL JEM-1400Plus (JEOL, Peabody, MA) transmission electron microscope and photographed using a Gatan OneView 4 K digital camera (Gatan, Pleasanton, CA).

[1] = system: CoNS with antimicrobial activity within the microbial community of human skin swabs; test: Effect of low dose LL-37 on mixed bacterial communities from healthy human forearm skin in vitro; type: cell-based, coagulase-negative Staphylococcus; settings: skin swabs from forearms of 5 healthy subjects, media with a low dose of LL-37, 4 h; Figure 4H
Description: Finally, the capacity of AMPs to shape the composition of the skin CoNS community was evaluated by examining the effects of LL-37 on survival of mixed communities of bacteria obtained from human skin (Figure 4G). Skin swab samples were obtained from the forearms of 5 healthy subjects (Table S4), and these mixed bacterial samples were incubated in media without or with a low dose of LL-37 for 4 h.
Individual isolated colonies of CoNS from human skin were grown on mannitol-salt agar with egg yolk (pink color without egg yolk reaction), randomly picked and transferred to individual wells containing TSB (400μL) in a 96-well cluster tube. Each plate also contained wells with a non-antimicrobial strain of S. epidermidis (S. epidermidis 1457) as a negative control, a potent antimicrobial strain of Staphylococcus hominis (A9 strain) as positive control, and blank wells without bacteria. CoNS were cultured at 37°C overnight with shaking. Growth was evaluated by OD600. Bacteria were removed by centrifugation followed by sterile filtration with a 0.22μm membrane. Sterile conditioned media were mixed with fresh TSB at 1:1. The antimicrobial activity released from each CoNS clone was evaluated by culturing 1 × 10^4 CFU of S. aureus (ATCC35556) in 200μL of diluted conditioned media at 30°C for 24 h. […] To determine frequency of antimicrobial CoNS, up to 48 CoNS vvvcolonies were analyzed.

[2] = system: CoNS-AM+ strains of S. epidermidis or S. hominis; test: Bacterial survival on pigskin, antibiotic-producing CoNS; type: cell-based; settings: LL-37 2.5 nmol on 2.5 × 2.5 cm pigskin sheet, 1 × 10^6 CFU, 30°C, 24 h; Figure 4F
Description: (§1) Fresh-frozen pigskin sheets were obtained from Loretta Tomlin Animal Technologies (Livermore, CA) and sanitized by surgical brush with 3% chloroxylenol. The skin sheet was cut into 2.5 cm × 2.5 cm and rinsed with sterile PBS more than 20 times to remove chloroxylenol residue. Synthetic LL-37 (2.5nanomol/50μL H2O) or equal volume of vehicle was applied to the surface of sanitized pig skin. Antibiotic-producing or non-antibiotic-producing strain of CoNS (1 × 10^6 CFU/10μL PBS) was applied on the pigskin. Pigskin sheet was placed on a 6-well plate and incubated at 30°C for 24 h. The entire skin sheet was rubbed 50 times with nylon foam swab (Puritan) pre-moisturized with PBS to collect bacteria on the skin surface. Swab sample was suspended in 1mL of 85% TSB/15% glycerol and frozen until analysis.

S. hominis C6 strain = test: Synergistic antimicrobial assay between LL-37 and Pep-5; type: cell-based, Staphylococcus hominis; settings: strain lacking antimicrobial activity; 90% RPMI/10% TSB, 30°C, 24 h; Figure S9
Description: ShA9 or S. epidermidis A11 strains, lantibiotic producing CoNS, were cultured in TSB at 37°C with shake overnight. Bacteria were removed by centrifugation, followed by sterile filtration with 0.22μm membrane. Lantibiotics from each strain was precipitated by adding ammonium sulfate into the sterile conditioned media at 70% saturation. The ammonium sulfate precipitation of conditioned media were dissolved in 90% RPMI1640 supplemented by 10% TSB. ShA9-DLanti mutant or S. hominis C6 strain were cultured in TSB at 37°C overnight and washed with PBS. These strain was incubated with conditioned media precipitation (0–100%) along with […] of LL-37 in 90% RPMI/10% TSB at 30°C for 24 h. Concentration of conditioned media precipitation added was calculated based on the original volume of sterile conditioned media. Bacterial survival was evaluated by measuring OD600 or counting CFUs.

[3] = system: CoNS-AM− strains of S. epidermidis or S. hominis; test: Bacterial survival on pigskin, non-antibiotic-producing CoNS; type: cell-based; settings: LL-37 2.5 nmol on 2.5 × 2.5 cm pigskin sheet, 1 × 10^6 CFU, 30°C, 24 h; Figure 4F
Description: as §1

ShA9-WT and ShA9-ΔLanti = test: Growth inhibition of ShA9-WT and ShA9-ΔLanti by human and murine AMPs (OD600); type: cell-based, Staphylococcus hominis; settings: 90% RPMI/10% TSB, 30°C, 24 h, mean of duplicate technical replicates, Figure 4E
Description: Staphylococcus strains collected from normal skin from healthy subjects or lesional skin from AD patients were cultured in TSB overnight. Bacteria were washed with PBS and resuspended to 90% RPMI media and 10% TSB. Bacteria (1 × 10^5 CFU/mL) were incu bated with or without human AMPs (LL-37, hBD-2, hBD-3) or mouse cathelin-related AMP (CRAMP) in 90% RPMI media and 10% TSB (100 μL) in each well of a 96-well plate at 30°C for 24 h. Bacterial growth was assessed by measuring OD600. Minimal inhibitory concentration was defined as the lowest concentration which prevent visible bacterial growth (<5% of OD600 value of the con trol well).

ShA9-WT = test: Transmission electron microscopy of ShA9-WT; type: cell-based, Staphylococcus hominis; settings: LL-37 (2 μM), 30°C, 30 min; Figure 5B

Substance: LL-37
- Electron microscopy findings in ShA9-ΔLanti after exposure to the single agent alone (ShA9-ΔLanti; LL-37 or ShA9-CM alone): did not show these changes
- Electron microscopy findings in ShA9-ΔLanti after the combination of lantibiotic-containing CM and LL-37 (ShA9-ΔLanti; combination): promote membrane damage
- Relative proportion of CoNS with antimicrobial activity in mixed bacterial samples [1]: decreased
- Survival of CoNS strains with antibiotic activity on pigskin [2]: inhibited survival
- Antimicrobial interaction of LL-37 combined with Pep-5 on S. hominis C6 (S. hominis C6 strain): synergy
- Survival of CoNS strains without antibiotic activity on pigskin [3]: did not inhibit
- Sensitivity of ShA9-WT to the AMP compared with ShA9-ΔLanti (growth inhibition) (ShA9-WT and ShA9-ΔLanti): more sensitive
- Electron microscopy findings in ShA9-WT after exposure (ShA9-WT): disruption of cytoplasmic membrane integrity and development of a mesosome-like structure within the cytosol
